Assay results from US7393977B2, “Dicarboxylic acid salt of sibutramine” (CJ Cheiljedang Corporation, priority 2005, dated 2008).
Where a name gives a salt, the structure may show the parent alone.

What was measured:
rat = conditions: cited from earlier work
mouse = conditions: cited from earlier work
[1] = Solubility evaluation in distilled water and at several pH values; conditions: 37 °C, thermodynamic from solid
[2] = Stability to heat (storage at 60° C., residual proportion by HPLC); format: physicochemical; conditions: for residual proportion of the initial level of active ingredient: 60° C.; for heat stability (in words): compared with sibutramine hydrochloride monohydrate
Method: (§1) The stability of an active ingredient used in a pharmaceutical composition to heat and light is a very important physical property during formulation into tablets and capsules and long-term storage. […] In detail, each compound was stored at 60° C. After 1, 2 and 4 weeks, the residual proportion of the initial level of an active ingredient was measured by high performance liquid chromatography (HPLC). Also, fluorescent light was radiated at 25° C. using a light stability test chamber suitable for the ICH guideline, and after 1, 2 and 4 weeks, the residual proportion of the initial level of an active ingredient was measured by HPLC.

[3] = Non-hygroscopicity evaluation (water content by Karl-Fisher titrator after exposure to humid air); format: physicochemical; conditions: for moisture absorption (in words): humid atmosphere of 95% relative humidity
Method: Then, the water content of the samples was measured using a Karl-Fisher titrator. In Table 4, the water content of an active ingredient is expressed as a percentage of water content by weight (weight %).

[4] = Stability to light (fluorescent light at 25° C., ICH light stability chamber, residual proportion by HPLC); format: physicochemical; conditions: for residual proportion of the initial level of active ingredient: fluorescent light, 25° C.; for photostability (in words): compared with sibutramine hydrochloride monohydrate
Method: as §1

[5] = 75% relative humidity at 25° C., 3 days
[6] = 95% relative humidity at 25° C., 1 week

SMILES	residual proportion of the initial level of active ingredient ([2]; 1 week)	residual proportion of the initial level of active ingredient ([2]; 2 weeks)	residual proportion of the initial level of active ingredient ([2]; 4 weeks)	residual proportion of the initial level of active ingredient ([2]; Initial)	residual proportion of the initial level of active ingredient ([4]; 1 week)	residual proportion of the initial level of active ingredient ([4]; 2 weeks)	residual proportion of the initial level of active ingredient ([4]; Initial)	heat stability (in words) [2]	water content (weight %) [3, 5] [%]	water content (weight %) [3, 6] [%]	water content (weight %) ([3]; Initial) [%]	moisture absorption (in words) [3]	photostability (in words) [4]	residual proportion of the initial level of active ingredient ([4]; 4 weeks)	other results
Cl [HCl, hydrochloric acid]															LD50 in rat (oral) (rat): 900 mg/kg; LD50 in mouse (i.p.) (mouse): 40 mg/kg
CC(C)CC(N(C)C)C1(c2ccc(Cl)cc2)CCC1 (centres unmarked) [Sibutramine HCl monohydrate, Sibutramine hydrochloride monohydrate, reference compound]	1.000	0.999	0.999	1.000	1.000	0.999	1.000								solubility ([1]; pH 1.2, simulated gastric fluid): 13.4 mg/mL; solubility ([1]; pH 4, aqueous buffer): 9.58 mg/mL; solubility ([1]; pH 5.3, aqueous buffer): 6.58 mg/mL; solubility ([1]; pH 6.8, aqueous buffer): 23.1 mg/mL; solubility ([1]; pH 7.4, aqueous buffer): 9.2 mg/mL; solubility ([1]; distilled water, water): 26.2 mg/mL; water content (weight %) ([3]; 75% relative humidity at 25° C., 3 days, hydrochloride monohydrate): 5.49%; water content (weight %) ([3]; 95% relative humidity at 25° C., 1 week, hydrochloride monohydrate): 5.5%; water content (weight %) ([3]; Initial, hydrochloride monohydrate): 5.49%; residual proportion of the initial level of active ingredient ([4]; 4 weeks, hydrochloride monohydrate): 0.998
CC(C)CC(N(C)C)C1(c2ccc(Cl)cc2)CCC1 (centres unmarked) [Sibutramine malonate, sibutramine malonate]	1.000	0.999	0.999	1.000	1.000	0.999	1.000	equal to those of sibutramine hydrochloride monohydrate	0.02	0.03	0.03	did not absorb moisture	equal to those of sibutramine hydrochloride monohydrate	0.999	
CC(C)CC(N(C)C)C1(c2ccc(Cl)cc2)CCC1 (centres unmarked) [Sibutramine oxalate, sibutramine oxalate]	1.000	0.999	0.999	1.000	1.000	0.999	1.000	equal to those of sibutramine hydrochloride monohydrate	0.03	0.02	0.02	did not absorb moisture	equal to those of sibutramine hydrochloride monohydrate	0.999	
